≈ marks a conversion by molar mass, not a printed value.
Columns and labels:
[1] = Compound solubility in water; assay type: physicochemical
[2] = molecular target: T1, glucocerebrosidase (Gcase) (Homo sapiens, UniProt P04062); assay: Glucocerebrosidase (Gcase) activation assay, 4-methylumbelliferyl-beta-D-glucopyranoside substrate, fluorescence; assay type: biochemical; details: 10 nM GCase, 100 nM saposin C; for activation at 0.1 µM / activation at 1 µM: 0.25 h; for activation at 0.1 µM: pH 4.7, test compound at 0.1 μM, read-out: Percent Gcase Activation 0.1 μM Test Compound; for activation at 1 µM: pH 4.7, test compound at 1.0 μM, read-out: Percent Gcase Activation 1 μM Test Compound; for Percent Gcase Activation 0.1 μM Test Compound: test compound at 0.1 μM; for Percent Gcase Activation 0.1 μM Test Compound / Percent Gcase Activation 1 μM Test Compound: pH 4.7; for Percent Gcase Activation 1 μM Test Compound: test compound at 1.0 μM
T1 sequence (P04062 40-536): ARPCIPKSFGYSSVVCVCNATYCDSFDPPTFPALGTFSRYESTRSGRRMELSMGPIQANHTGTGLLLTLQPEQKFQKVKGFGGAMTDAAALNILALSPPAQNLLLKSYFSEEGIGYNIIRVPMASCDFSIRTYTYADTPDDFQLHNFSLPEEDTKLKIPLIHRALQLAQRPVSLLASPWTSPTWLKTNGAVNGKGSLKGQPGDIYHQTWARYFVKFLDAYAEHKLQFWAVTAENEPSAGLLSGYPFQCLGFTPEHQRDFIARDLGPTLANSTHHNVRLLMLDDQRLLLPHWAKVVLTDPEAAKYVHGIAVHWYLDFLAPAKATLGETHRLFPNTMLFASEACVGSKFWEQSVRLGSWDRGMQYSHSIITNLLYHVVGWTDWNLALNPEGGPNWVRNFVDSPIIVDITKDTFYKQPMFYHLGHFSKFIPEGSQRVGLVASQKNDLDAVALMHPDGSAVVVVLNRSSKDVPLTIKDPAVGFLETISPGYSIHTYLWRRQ
In short: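 10 nM GCase with 100 nM saposin C in Triton/phosphatidylserine micelles (citrate-phosphate, pH 4.7), pre-incubated 30 min at room temperature with compound, then 2 mM 4-methylumbelliferyl-β-D-glucoside stock mixed 1:1; 15 min reaction, stopped with glycine pH 12.5, fluorescence at 365/440 nm. Activation scored at 1.0 and 0.1 μM; 8-point curves from 5 μM top.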

Row | SMILES | solubility [1] [µg/mL] | activation at 0.1 µM [2] [%] | activation at 1 µM [2] [%] | Percent Gcase Activation 0.1 μM Test Compound [2] | Percent Gcase Activation 1 μM Test Compound [2] | Compound Solubility in Water [1] [µg/mL]
1 | COc1ccccc1[C@@H](C)NC(=O)c1ccn2c(C)cc(C)nc12 [IV-29] | 2.3 (≈ 7.11 µM) | 10 to 20 | > 60 | – | – | –
2 | Cc1ccc([C@H](C)NC(=O)c2ccn3c(C)cc(C)nc23)cc1 [IV-30] | 2.6 (≈ 8.46 µM) | 10 to 20 | > 60 | – | – | –
3 | Cc1cc(C)n2ccc(C(=O)NC(C)c3ccc4ccccc4c3)c2n1 (stereo not drawn) [IV-31] | 0.2 (≈ 0.582 µM) | > 20 | > 60 | – | – | –
4 | COc1cccc([C@@H](C)NC(=O)c2ccn3c(C)cc(C)nc23)c1 [IV-32] | 7.8 (≈ 24.1 µM) | 10 to 20 | > 60 | – | – | –
5 | COc1cccc([C@H](C)NC(=O)c2ccn3c(C)cc(C)nc23)c1 [IV-33] | 9.4 (≈ 29.1 µM) | 10 to 20 | > 60 | – | – | –
6 | Cc1cc(C)n2ccc(C(=O)NC(C)(c3ccccc3)c3ccccc3)c2n1 [IV-39] | 0.8 (≈ 2.17 µM) | 10 to 20 | > 60 | – | – | –
7 | Cc1cc(C)n2ccc(C(=O)NC(C)(C)c3cccc(Cl)c3)c2n1 [IV-40] | 1.5 (≈ 4.39 µM) | – | – | ** (Gcase activation in the range of 10% up to 20%) | +++ (Gcase activation greater than 60%) | –
8 | Cc1cc(C)n2ccc(C(=O)NC(CC3CCC3)c3ccccc3)c2n1 (stereo not drawn) [IV-41] | 0.5 (≈ 1.44 µM) | > 20 | > 60 | – | – | –
9 | Cc1cccc(C2CC2C(C)NC(=O)c2ccn3c(C)cc(C)nc23)c1 (stereo not drawn) [IV-42] | 1.1 (≈ 3.17 µM) | > 20 | > 60 | – | – | –
10 | CCc1ccc(C(C)NC(=O)c2ccn3c(C)cc(C)nc23)cc1 (stereo not drawn) [IV-44] | 2 (≈ 6.22 µM) | > 20 | > 60 | – | – | –
11 | Cc1cc(C)n2ccc(C(=O)NC(C)c3ccc4c(c3)OCO4)c2n1 (stereo not drawn) [IV-45] | 5.7 (≈ 16.9 µM) | < 10 | 30 to 60 | – | – | –
12 | Cc1cc(C)n2ccc(C(=O)N[C@@H](C)c3ccc(Cl)cc3)c2n1 [IV-46] | 0.4 (≈ 1.22 µM) | > 20 | > 60 | – | – | –
13 | Cc1cc(C)n2ccc(C(=O)NC(C)c3cccc4ccccc34)c2n1 (stereo not drawn) [IV-47] | – | – | – | *** (greater than 20% Gcase activation) | +++ (Gcase activation greater than 60%) | 0.7
14 | Cc1cc(C)n2ccc(C(=O)NC(C)(C)c3cccc4ccccc34)c2n1 [IV-48] | 0.6 (≈ 1.68 µM) | > 20 | > 60 | – | – | –
15 | Cc1cc(C)n2ccc(C(=O)NC(C)c3cn(C)c4ccccc34)c2n1 (stereo not drawn) [IV-49] | 2.1 (≈ 6.06 µM) | 10 to 20 | > 60 | – | – | –
16 | CCC(NC(=O)c1ccn2c(C)cc(C)nc12)c1cccnc1 (stereo not drawn) [IV-50] | 24.7 (≈ 80.1 µM) | < 10 | 30 to 60 | – | – | –

Row | SMILES | solubility [1] [µg/mL] | activation at 0.1 µM [2] [%] | activation at 1 µM [2] [%] | Percent Gcase Activation 0.1 μM Test Compound [2] | Percent Gcase Activation 1 μM Test Compound [2] | Compound Solubility in Water [1] [µg/mL]
17 | CCOc1ccc(C(CC)NC(=O)c2ccn3c(C)cc(C)nc23)cc1F (stereo not drawn) [IV-51] | 0.3 (≈ 0.812 µM) | > 20 | > 60 | – | – | –
18 | Cc1cc(C)n2ccc(C(=O)NC(CC(C)C)c3cccnc3)c2n1 (stereo not drawn) [IV-52] | 17.3 (≈ 51.4 µM) | < 10 | 30 to 60 | – | – | –
19 | Cc1cc(C)n2ccc(C(=O)NC(C)c3cccc4c3OCCCO4)c2n1 (stereo not drawn) [IV-53] | 5.1 (≈ 14 µM) | 10 to 20 | > 60 | – | – | –
20 | CCC(NC(=O)c1ccn2c(C)cc(C)nc12)c1cc(C)ccn1 (stereo not drawn) [IV-54] | 23.2 (≈ 72 µM) | < 10 | < 30 | – | – | –
21 | CCC(NC(=O)c1ccn2c(C)cc(C)nc12)c1cccc(C)n1 (stereo not drawn) [IV-55] | 17.6 (≈ 54.6 µM) | < 10 | < 30 | – | – | –
22 | CCC(NC(=O)c1ccn2c(C)cc(C)nc12)c1ccc(F)cc1 (stereo not drawn) [IV-56] | 2 (≈ 6.15 µM) | > 20 | > 60 | – | – | –
23 | CCC(NC(=O)c1ccn2c(C)cc(C)nc12)c1nc(C2CC2)no1 (stereo not drawn) [IV-58] | 18.5 (≈ 54.5 µM) | < 10 | 30 to 60 | – | – | –
24 | CCC(NC(=O)c1ccn2c(C)cc(C)nc12)c1ccc(Cl)cc1 (stereo not drawn) [IV-59] | 0.8 (≈ 2.34 µM) | > 20 | > 60 | – | – | –
25 | COc1ccc(C(C)NC(=O)c2ccn3c(C)cc(C)nc23)cc1F (stereo not drawn) [IV-61] | 1.9 (≈ 5.57 µM) | > 20 | > 60 | – | – | –
26 | CCC(NC(=O)c1ccn2c(C)cc(C)nc12)c1ccc2c(c1)OCCO2 (stereo not drawn) [IV-62] | 1.1 (≈ 3.01 µM) | 10 to 20 | > 60 | – | – | –
27 | Cc1cc(C)n2ccc(C(=O)NC(C)c3nc4c(s3)CCCC4)c2n1 (stereo not drawn) [IV-64] | 4.9 (≈ 13.8 µM) | 10 to 20 | > 60 | – | – | –
28 | Cc1cc(C)n2ccc(C(=O)NC(CC(C)C)c3ccccc3)c2n1 (stereo not drawn) [IV-66] | 1 (≈ 2.98 µM) | > 20 | > 60 | – | – | –
29 | Cc1cc(C)n2ccc(C(=O)NC(C)C3(c4ccccc4)CCCC3)c2n1 (stereo not drawn) [IV-73] | 1.5 (≈ 4.15 µM) | > 20 | > 60 | – | – | –
30 | CCOc1ccccc1C(C)NC(=O)c1ccn2c(C)cc(C)nc12 (stereo not drawn) [IV-78] | 2.1 (≈ 6.22 µM) | > 20 | > 60 | – | – | –
31 | Cc1cc(C)n2ccc(C(=O)NC(C)c3ccc4c(c3)CC(C)O4)c2n1 (stereo not drawn) [IV-79] | 2.6 (≈ 7.44 µM) | > 20 | > 60 | – | – | –
